Laboratory results published in paper PMC6967409 (Frontiers in Chemistry, 2020).
Values joined by “and” are separate entries in the source; they are usually repeats but may differ in a detail not shown here. Identical values can stand only once. Like-named read-outs stand apart in the source and are kept apart here.

How the values were obtained:
[1] = test system: Chinese hamster ovarian (CHO) cells; conditions: read-out: Cytotoxicity EC50 CHO; MTT assay; ref Coertzen et al. (2018); cited from earlier work
[2] = test system: P. falciparum NF54 late stage gametocytes (>90% stage IV and V); design: method as in Coertzen et al. (2018); conditions: read-out: Late Stage (LG, Luc 72 h) IC50; >90% stage IV and V gametocytes; ref Coertzen et al. (2018); cited from earlier work
[3] = test system: P. falciparum K1; design: method as in Coertzen et al. (2018); conditions: SYBR Green I; ref Coertzen et al. (2018); read-out: Proliferative IC50 K1; cited from earlier work
[4] = test system: P. falciparum ARC08-22 (4G); experiment: T0 [3H]-hypoxanthine drug susceptibility assay, artemisinin-resistant clone (C580Y); type: cell-based, Plasmodium falciparum; conditions: preliminary, W2 as comparative sensitive strain
[5] = test system: P. falciparum NF54 early stage gametocytes (>90% stage I–III); design: method as in Coertzen et al. (2018); conditions: read-out: Early Stage (EG, Luc 48 h) IC50; >90% stage I–III gametocytes; ref Coertzen et al. (2018); cited from earlier work
[6] = test system: P. falciparum NF54; design: method as in Coertzen et al. (2018); conditions: pLDH, 48 h; ref Coertzen et al. (2018); read-out: Metabolic IC50 NF54; cited from earlier work
[7] = test system: P. falciparum W2; experiment: T0 [3H]-hypoxanthine drug susceptibility assay; type: cell-based; conditions: Plasmodium falciparum; for IC50: W2, read-out: W2 IC50; for IC90: W2, read-out: W2 IC90
[8] = test system: P. falciparum NF54; design: method as in Coertzen et al. (2018); conditions: SYBR Green I; ref Coertzen et al. (2018); read-out: Proliferative IC50 NF54; cited from earlier work
[9] = test system: P. berghei ANKA GFP-Luc-SMcon sporozoites; experiment: P. berghei-luciferase liver stage bioluminescence assay (causal prophylactic mode) in HepG2-CD81 cells; type: cell-based, Plasmodium berghei; conditions: for Emax: 48 h, read-out: P.berghei-Luciferase Liver Stage Bioluminescence Assay: Maximum measured (%)
Experimental: (§1) Briefly, HepG2-CD81 cells were seeded into 1,536 well plates containing 50 nL of test and control compounds diluted into DMSO. […] Next, 2 μL of luciferin reagent (Promega BrightGlo) was added to each well and luciferase activity was detected using a Perkin Elmer Envision plate reader. […] In parallel, plates were processed without sporozoites for HepG2 toxicity measurements.
(§2) In continuation of the transmission blocking theme, it is important to establish activities against liver stage parasites. […] This assay uses ultra-high-throughput screening methods optimized for a 1536-well format and a HepG2 human hepatoma cell line. […] To establish selectivity of the compounds for the parasite in the liver stage of infection, cytotoxicity was determined by measuring bioluminescence from the reaction between free ATP of compound-treated, uninfected hepatocytes and a luciferase reporter system.

[10] = test system: HepG2 cells; experiment: HepG2 cytotoxicity bioluminescence assay (CellTiterGlo, ATP); type: cell-based, human; conditions: for IC50 / HepG2 Cytotoxicity Bioluminescence Assay: Maximum measured (%): two biological replicates listed in one cell
Experimental: as §1, §2

[11] = as above; type: cell-based, human; conditions: human, uninfected HepG2-CD81 cells; for IC50 at 72 h: two biological replicates listed in one cell; for EC50 at 72 h: uninfected HepG2, ATP bioluminescence
Experimental: as §1, §2

[12] = test system: P. falciparum W2; design: method as in Coertzen et al. (2018); conditions: SYBR Green I; ref Coertzen et al. (2018); read-out: Proliferative IC50 W2; cited from earlier work
[13] = test system: P. falciparum PL08-009 (5C); experiment: T0 [3H]-hypoxanthine drug susceptibility assay, artemisinin-resistant clone (C580Y); type: cell-based, Plasmodium falciparum; conditions: preliminary, W2 as comparative sensitive strain
[14] = test system: P. falciparum Dd2; design: method as in Coertzen et al. (2018); conditions: pLDH, 48 h; ref Coertzen et al. (2018); read-out: Metabolic IC50 Dd2; cited from earlier work
[15] = test system: P. falciparum NF54 late stage gametocytes (>90% stage IV and V); experiment: Gametocytocidal luciferase reporter assay, late stage, 72 h; type: cell-based, Plasmodium falciparum; conditions: Plasmodium falciparum, NF54, 72 h, read-out: Late Stage (LG, Luc 72 h) IC50, >90% stage IV and V gametocytes, ±SEM
Experimental: (§3) P. falciparum parasites (NF54, K1, and W2) were cultured in vitro in human erythrocytes (A^+ or O^+) under 90% N2, 5% CO2, and 5% O2 atmospheric conditions with supplemented RPMI 1640 media (Sigma Aldrich) containing Albumax II, as previously described (Verlinden et al., [2011]). This study was carried out according the guidelines set out by the Faculty of Health Sciences Ethical Committee, Ethical Clearance no. EC-120821/077. The protocol was approved by the Faculty of Health sciences ethical committee at the University of Pretoria. All subjects gave written informed consent in accordance with the Declaration of Helsinki. Parasite proliferation was monitored microscopically using Giemsa stained smears. Synchronized ring stage parasites (>95%) were obtained using a 5% D-sorbitol (Sigma Aldrich) treatment. […] Gametocyte cultures were kept stationary under 90% N2, 5% CO2, and 5% O2 atmospheric conditions at 37°C and treated with 50 mM N-acetyl-glucosamine (NAG) to eliminate residual invasion of asexual parasites.
(§4) Gametocytocidal activity was determined using the luciferase reporter line (Reader et al., [2015]) to derive dose responses with two-fold serial drug dilutions for 48 h against early stage gametocytes (day 5 post-induction population, >90% stage I–III) and 10-fold serial drug dilutions for 72 h against late stage gametocytes (day 10 post-induction population, >90% late stage IV–V) (2% gametocytemia, 2% hematocrit), at 37°C under 90% N2, 5% CO2, and 5% O2 atmospheric conditions.

[16] = Cytotoxicity, MTT assay; type: cell-based; conditions: Chinese hamster, CHO cells
Experimental: (§5) Cytotoxicity (EC50) was determined against Chinese hamster ovarian (CHO) using a 3-(4,5-dimethylthiazol-2-yl)-2,5-diphenyltetrazolium bromide (MTT) assay and hepatocellular carcinoma cells (HepG2) using the Cytoselect LDH cytotoxicity assay kit (Cell Biolabs).

[17] = test system: P. falciparum Dd2; experiment: Metabolic (parasite LDH) assay, asexual ring stage parasites, 48 h; type: cell-based; conditions: Plasmodium falciparum, pLDH, Dd2 CQ, pyrimethamine resistant
Experimental: (§6) Working solutions of the derivatives were prepared from a 10 mM stock solution in 100% DMSO in supplemented RPMI 1640 media containing Albumax II with a final DMSO concentration of <0.1%, previously determined as being non-toxic to intraerythrocytic asexual parasites and gametocytes. Dose responses were assayed using a two-fold serial drug dilution on in vitro >95% ring stage intraerythrocytic P. falciparum parasites at 37°C under 90% N2, 5% CO2, and 5% O2 atmospheric conditions, detecting both parasite lactate dehydrogenase (pLDH) activity as a metabolic marker following a 48 h drug exposure (1.5–2% parasitemia and 2% hematocrit; Makler et al., [1993]) and SYBR Green I fluorescence as proliferative marker following a 96 h drug exposure (1% parasitemia and 1% hematocrit). […] Data analysis was performed using GraphPad Prism 7.

[18] = test system: P. falciparum W2; experiment: Proliferative (SYBR Green I) assay, asexual parasites, 96 h; type: cell-based; conditions: Plasmodium falciparum, ±SEM
Experimental: as §3, §6

[19] = test system: P. falciparum K1; experiment: as above; type: cell-based; conditions: Plasmodium falciparum, ±SEM
Experimental: as §3, §6

[20] = test system: P. falciparum NF54; experiment: as above; type: cell-based; conditions: Plasmodium falciparum, ±SEM
Experimental: as §3, §6

[21] = Cytotoxicity, Cytoselect LDH cytotoxicity assay kit; type: cell-based; conditions: human, HepG2 cells
Experimental: as §5

[22] = test system: P. falciparum NF54 early stage gametocytes (>90% stage I–III); experiment: Gametocytocidal luciferase reporter assay, early stage, 48 h; type: cell-based; conditions: Plasmodium falciparum, NF54, 48 h, read-out: Early Stage (EG, Luc 48 h) IC50
Experimental: as §3, §4

[23] = test system: P. falciparum NF54; experiment: Metabolic (parasite LDH) assay, asexual ring stage parasites, 48 h; type: cell-based; conditions: Plasmodium falciparum, pLDH, CQ-sensitive NF54
Experimental: as §3, §6

[24] = test system: P. falciparum W2; design: method as in Lanteri et al., 2014; conditions: ref Lanteri et al., 2014; read-out: mean IC50 against W2; cited from earlier work
[25] = test system: Pf CamWT, Cam3.II, CamWTC580Y, Cam3.IIC580Y, Cam3.IIRev; design: method as in Lanteri et al., 2014; conditions: ref Lanteri et al., 2014; read-out: mean IC50 across CamWT, Cam3.II and K13 transfected strains; cited from earlier work
[26] = Plasmodium berghei, two biological replicates listed in one cell
[27] = Plasmodium berghei, HepG2, 48 h, liver stage, HepG2 host cells, luciferase after 48 h, ±SD, read-out: P. berghei sporozoites IC50
[28] = Plasmodium berghei, two biological replicates listed in one cell, read-out: P.berghei-Luciferase Liver Stage Bioluminescence Assay: IC50

C[C@H]1[C@H](N2CCSCC2)O[C@@H]2O[C@@]3(C)CC[C@H]4[C@H](C)CC[C@@H]1[C@@]24OO3 [Artemiside 7, artemiside]
EC50 [1]: > 271000 nM
IC50 [2]: 1.5 ± 0.5 nM
IC50 [3]: 1.6 ± 0.4 nM
susceptibility of ARC08-22 (4G) clone (in words) [4]: no indication of reduced susceptibility
IC50 [5]: 16.4 ± 1 nM
IC50 [6]: 6 ± 1.8 nM
IC50 [7]: 2.21 ± 0.42 nM
IC90 [7]: 4.28 ± 0.25 nM
IC50 [8]: 1.11 ± 0.17 nM
Emax [9, 26]: 98.1%
IC50 [9, 27]: 81.3 ± 9.62 nM
IC50 [9, 28]: 74.5 nM
inhibition at 5 µM ([9]; Plasmodium berghei, Conc. 5 μM, read-out: P. berghei sporozoites Maximum inhibition %): 99 ± 1.34%
IC50 ([9]; two biological replicates listed in one cell, listed as 7 Artemiside (GC008), read-out: P.berghei-Luciferase Liver Stage Bioluminescence Assay: IC50): 88.1 nM
HepG2 cytotoxicity IC50 (in words) ([10]; at 25 μM (artemiside 7) and 50 μM (artemisone 8)): no measurable IC50 values
IC50 [10]: > 25000 nM
HepG2 Cytotoxicity Bioluminescence Assay: Maximum measured (%) ([10]; listed as 7 Artemiside (GC008)): 30.4% and 36.5%
IC50 at 72 h [11]: > 25000 nM
EC50 at 72 h [11]: > 25000 nM
IC50 [12]: 1.75 ± 0.27 nM
susceptibility of PL08-009 (5C) clone (in words) [13]: no indication of reduced susceptibility
IC50 [14]: 8.2 ± 1.4 nM

CC1CCC2C(C)C(Nc3ccc(F)cc3)OC3OC4(C)CCC1C32OO4 (centres unmarked) [Arylamine 12]
EC50 [1]: 2900 ± 1400 nM
IC50 [2]: 16.4 ± 6.38 nM
IC50 [3]: 0.64 ± 0.1 nM
IC50 [5]: 38.2 ± 9 nM
IC50 [6]: 7.8 ± 1.9 nM
IC50 [7]: 4.76 ± 0.38 nM
IC90 [7]: 8.51 ± 0.34 nM
IC50 [8]: 1.3 ± 0.6 nM
IC50 [12]: 3 ± 1 nM
IC50 [14]: 11.1 ± 1 nM

C[C@H]1[C@H](N2CCN(C(=O)c3ccc(C(F)(F)F)cc3)CC2)O[C@@H]2O[C@@]3(C)CC[C@H]4[C@H](C)CC[C@@H]1[C@@]24OO3 [Compound 27]
IC50 [15]: 2.8 ± 1.8 nM
susceptibility of ARC08-22 (4G) clone (in words) [4]: no indication of reduced susceptibility
EC50 [16]: 150000 nM
IC50 [17]: 13.2 ± 9.3 nM
IC50 [7]: 0.21 ± 0.04 nM
IC90 [7]: 0.41 ± 0.08 nM
Emax [9, 26]: 105%
IC50 [9, 27]: 168 ± 55.2 nM
IC50 [9, 28]: 129 nM
inhibition at 10 µM ([9]; Plasmodium berghei, Conc. 10 μM, read-out: P. berghei sporozoites Maximum inhibition %): 108 ± 4.24%
IC50 ([9]; two biological replicates listed in one cell, listed as 27 (WHN-15), read-out: P.berghei-Luciferase Liver Stage Bioluminescence Assay: IC50): 207 nM
IC50 [18]: 3 ± 0.4 nM
IC50 [19]: 3.5 ± 2.4 nM
IC50 [20]: 3.4 ± 0.4 nM
HepG2 Cytotoxicity Bioluminescence Assay: Maximum measured (%) ([10]; listed as 27 (WHN-15)): 78.3% and 80.2%
IC50 ([10]; listed as 27 (WHN-15)): 5120 nM
IC50 at 72 h [11]: 8910 nM
EC50 at 72 h [11]: 7020 nM
EC50 [21]: 136 nM
IC50 [22]: 43.7 ± 5.1 nM
IC50 [23]: 0.49 ± 0.04 nM

C[C@H]1[C@@H](O)O[C@@H]2O[C@@]3(C)CC[C@H]4[C@H](C)CC[C@@H]1[C@@]24OO3 [DHA 2, dihydroartemisinin]
EC50 [1]: 25200 nM
IC50 [2]: 33.7 ± 1.98 nM
IC50 [3]: 1.51 ± 0.33 nM
IC50 [24]: 5.2 nM
IC50 [25]: 11.2 nM
IC50 [5]: 43 ± 3.9 nM
IC50 [6]: 0.8 ± 0.1 nM
IC50 [7]: 4.58 ± 2.54 nM
IC90 [7]: 10.3 ± 5.76 nM
IC50 [8]: 2.51 ± 0.19 nM
IC50 [12]: 1.74 ± 0.22 nM
IC50 [14]: 5.7 ± 2 nM
